Experimental data taken from patent US20210246115A1 (Bioimics AB, priority 2017, published 2021).
Where a name gives a salt, the structure may show the parent alone. Read-outs that look alike come from different tables or passages of the source. Blank lines part the entries; values can stand above or below the compound they belong to.

Tests used:
M. phlei ATCC 11758 = assay: MIC, M. phlei ATCC 11758; type: cell-based; conditions: Mycolicibacterium phlei, ATCC11758; Table XIV A. Gram-positive bacteria
E. faecium ATCC 700221 = assay: MIC, E. faecium ATCC 700221; type: cell-based; conditions: Enterococcus faecium, ATCC700221; Table XIV A. Gram-positive bacteria; read-out: E. faecium ATCC 700221 MIC
H. influenzae ATCC 49247 = assay: MIC, H. influenzae ATCC 49247; type: cell-based; conditions: Haemophilus influenzae, ATCC49247; Table XIV B. Gram-negative bacteria
[1] = tested on: P. aeruginosa NTUH974 (MDR); assay: MIC, P. aeruginosa NTUH974 (MDR); type: cell-based; conditions: Pseudomonas aeruginosa; Table XIV B. Gram-negative bacteria; read-out: P. aeruginosa NTUH974 (MDR) MIC
[2] = tested on: S. aureus MRSA ATCC 33591; assay: MIC, S. aureus MRSA ATCC 33591; type: cell-based; conditions: Staphylococcus aureus; Table XIV A. Gram-positive bacteria; read-out: S. aureus MRSA ATCC 33591 MIC
[3] = tested on: E. coli JW5503 (efflux defective); assay: MIC, E. coli JW5503 (efflux defective); type: cell-based; conditions: Escherichia coli, read-out: E. coli JW5503 (efflux defective) MIC
[4] = tested on: Escherichia coli (ATCC25922); assay: MIC, broth microdilution (CLSI), Escherichia coli; conditions: for MIC: Escherichia coli
[5] = tested on: Staphylococcus aureus (ATCC25923); assay: MIC, broth microdilution (CLSI), Staphylococcus aureus ATCC25923; conditions: for MIC: Staphylococcus aureus, ATCC25923, read-out: S. aureus ATCC 25923 MIC
[6] = tested on: S. aureus USA300 MRSA BAA-1717; assay: MIC, S. aureus USA300 MRSA BAA-1717; type: cell-based; conditions: Staphylococcus aureus; Table XIV A. Gram-positive bacteria; read-out: S. aureus USA300 MRSA BAA-1717 MIC
[7] = tested on: Staphylococcus aureus subsp. aureus (ATCC29213); assay: MIC, broth microdilution (CLSI), Staphylococcus aureus ATCC29213; type: cell-based; conditions: Staphylococcus aureus, read-out: S. aureus ATCC 29213 MIC
S. pneumoniae ATCC 49619 = assay: MIC, S. pneumoniae ATCC 49619; type: cell-based; conditions: Streptococcus pneumoniae, ATCC49619; Table XIV A. Gram-positive bacteria
K. pneumoniae ATCC 43816 = assay: MIC, K. pneumoniae ATCC 43816; type: cell-based; conditions: Klebsiella pneumoniae, ATCC43816; Table XIV B. Gram-negative bacteria
[8] = tested on: N. gonorrhoeae ATCC 700825; assay: MIC, N. gonorrhoeae ATCC 700825; type: cell-based; conditions: Neisseria gonorrhoeae, ATCC700825; Table XIV B. Gram-negative bacteria
A. baumannii ATCC 17978 = assay: MIC, A. baumannii ATCC 17978; type: cell-based; conditions: Acinetobacter baumannii, ATCC17978; Table XIV B. Gram-negative bacteria
[9] = tested on: E. coli RNase P RNA, M1 RNA; assay: Inhibition of bacterial RNase P activity, IC50 determination (cleavage of pATSerUG by M1 RNA); type: biochemical; conditions: NI: No inhibition
[10] = tested on: Enterococcus faecalis (ATCC29212); assay: MIC, broth microdilution (CLSI), Enterococcus faecalis; type: cell-based; conditions: ATCC29212, Table XIV A. Gram-positive bacteria, read-out: E. faecalis ATCC 29212 MIC
[11] = tested on: Pseudomonas aeruginosa (ATCC27853); assay: MIC, broth microdilution (CLSI), Pseudomonas aeruginosa; type: cell-based; conditions: ATCC27853, Table XIV B. Gram-negative bacteria, read-out: P. aeruginosa ATCC 27853 MIC
M. fortuitum ATCC 110 = assay: MIC, M. fortuitum ATCC 110; type: cell-based; conditions: Mycolicibacterium fortuitum, ATCC110; Table XIV A. Gram-positive bacteria
[12] = tested on: E. coli RNase P RNA, M1 RNA; assay: Initial screening for inhibition of RNase P activity (normalised cleavage of pATSerUG at maximum compound concentration); type: biochemical; conditions: normalised cleavage (cleavage with compound / without compound) at maximum compound concentration
[13] = ATCC25922, read-out: E. coli ATCC 25922 MIC, Table XIV B. Gram-negative bacteria
[14] = ATCC29213, Table XIV A. Gram-positive bacteria
[15] = ATCC25922, read-out: E. coli ATCC 25922 MIC, Table XIII

Compound: N[C@H]1CC[C@H](NC2CCC(c3cn(CC4CCCCC4)c4ccc(Br)cc34)CC2)CC1 (single isomer, unassigned) [Compound 266, (1r,4r)-N1-(4-(5-bromo-1-(cyclohexylmethyl)-1H-indol-3-yl)cyclohexyl)cyclohexane-1,4-diamine hydrochloride salt]
- MIC (M. phlei ATCC 11758): 2 mg/L
- MIC (E. faecium ATCC 700221): 2 mg/L
- MIC (H. influenzae ATCC 49247): 4 mg/L
- MIC [1]: 16 mg/L
- MIC [2]: 2 mg/L
- MIC [3]: 4 mg/L
- MIC [4, 13]: 4 mg/L
- E. coli ATCC 25922 MIC ([4]; Table XIII): 2 mg/L
- S. aureus ATCC 25923 MIC ([5]; Table XIII): 2 mg/L
- MIC [6]: 2 mg/L
- MIC ([7]; ATCC29213, Table XIII): 2 mg/L
- MIC [7, 14]: 4 mg/L
- MIC (S. pneumoniae ATCC 49619): 8 mg/L
- MIC (K. pneumoniae ATCC 43816): 4 mg/L
- MIC [8]: 2 mg/L
- MIC (A. baumannii ATCC 17978): 8 mg/L
- IC50 ([9]; hydrochloride salt): 8.5 µM
- MIC [10]: 2 mg/L
- MIC [11]: 8 mg/L
- MIC (M. fortuitum ATCC 110): 2 mg/L

Compound: Cl.c1c[nH]c(CNCCc2c[nH]c3ccccc23)c1 [Compound 14, N-((1H-pyrrol-2-yl)methyl)-2-(1H-indol-3-yl)ethan-1-amine hydrochloride salt]
- Initial screening of RNase P Inhibition [12]: 0.78

Compound: COc1ccccc1-c1ccc2c(c1)c(CCCN[C@H]1CC[C@H](N)CC1)cn2CC1CCCCC1 [Compound 237, (1S,4S)-N1-(3-(1-(cyclohexylmethyl)-5-(2-methoxyphenyl)-1H-indol-3-yl)propyl)cyclohexane-1,4-diamine hydrochloride salt]
- MIC (M. phlei ATCC 11758): 2 mg/L
- MIC (E. faecium ATCC 700221): 2 mg/L
- MIC (H. influenzae ATCC 49247): 8 mg/L
- MIC [1]: 16 mg/L
- MIC [2]: 4 mg/L
- MIC [3]: 4 mg/L
- MIC [4, 15]: 4 mg/L
- MIC [4, 13]: 4 mg/L
- MIC [5]: 2 mg/L
- MIC [6]: 4 mg/L
- MIC ([7]; ATCC29213, Table XIII): 4 mg/L
- MIC [7, 14]: 2 mg/L
- MIC (S. pneumoniae ATCC 49619): 8 mg/L
- MIC (K. pneumoniae ATCC 43816): 4 mg/L
- MIC [8]: 2 mg/L
- MIC (A. baumannii ATCC 17978): 8 mg/L
- IC50 [9]: 9.8 µM
- MIC [10]: 2 mg/L
- MIC [11]: 16 mg/L
- MIC (M. fortuitum ATCC 110): 2 mg/L

- IC50 [9]: 823 µM
Compound: CCn1cc(C(CC(=O)NCCC2CCNCC2)c2cccc(C)c2)c2ccccc21.Cl (centres unmarked) [Compound 84, 3-(1-ethyl-1H-indol-3-yl)-N-(2-(piperidin-4-yl)ethyl)-3-(m-tolyl)propanamide hydrochloride salt]
- Initial screening of RNase P Inhibition [12]: 0.32

Compound: COc1ccc(CNCCc2c[nH]c3ccccc23)cc1.Cl [Compound 11, 2-(1H-indol-3-yl)-N-(4-methoxybenzyl)ethan-1-amine hydrochloride salt]
- Initial screening of RNase P Inhibition [12]: 0.72

Compound: c1ccc2c(CCNCC3CCNCC3)c[nH]c2c1 [Compound 18, 2-(1H-indol-3-yl)-N-(piperidin-4-ylmethyl)ethan-1-amine hydrochloride salt]
- Initial screening of RNase P Inhibition [12]: 1.05

Compound: Cl.c1cc(CNCCc2c[nH]c3ccccc23)nc(N2CCCCC2)c1 [Compound 17, 2-(1H-indol-3-yl)-N-((6-(piperidin-1-yl)pyridin-2-yl)methyl)ethan-1-amine hydrochloride salt]
- Initial screening of RNase P Inhibition [12]: 0.94

- IC50 [9]: 806 µM
Compound: Cc1cccc(C(CC(=O)NCCC2CCNCC2)c2cn(Cc3ccccc3)c3cccnc23)c1.Cl (centres unmarked) [Compound 85, 3-(1-benzyl-1H-pyrrolo[3,2-b]pyridin-3-yl)-N-(2-(piperidin-4-yl)ethyl)-3-(m-tolyl)propanamide hydrochloride salt]
- Initial screening of RNase P Inhibition [12]: 0.20

- IC50 ([9]; hydrochloride salt): 242 µM
Compound: Cc1cccc(C(CC(=O)NCCC2CCNCC2)c2cn(Cc3ccccc3)c3ccccc23)c1.Cl (centres unmarked) [Compound 86, 3-(1-benzyl-1H-indol-3-yl)-N-(2-(piperidin-4-yl)ethyl)-3-(m-tolyl)propanamide hydrochloride salt]
- Initial screening of RNase P Inhibition ([12]; hydrochloride salt): 0.78

Compound: Brc1cccc(CNCCc2c[nH]c3ccccc23)c1.Cl [Compound 13, N-(3-bromobenzyl)-2-(1H-indol-3-yl)ethan-1-amine hydrochloride salt]
- Initial screening of RNase P Inhibition [12]: 0.97

Compound: Cl.c1ccc2c(CCNCc3cncs3)c[nH]c2c1 [Compound 16, 2-(1H-indol-3-yl)-N-(thiazol-5-ylmethyl) ethan-1-amine hydrochloride salt]
- Initial screening of RNase P Inhibition [12]: 0.88

Compound: Cc1ccc(CN(CCc2c[nH]c3ccccc23)C(=O)CNCc2ccc(F)cc2)cc1.Cl [Compound 15, N-(2-(1H-indol-3-yl)ethyl)-2-((4-fluorobenzyl)amino)-N-(4-methylbenzyl)acetamide hydrochloride salt]
- Initial screening of RNase P Inhibition [12]: 1.10

Compound: Cl.c1ccc2c(CCNCc3c[nH]cn3)c[nH]c2c1 [Compound 9, N-((1H-imidazol-4-yl)methyl)-2-(1H-indol-3-yl)ethan-1-amine hydrochloride salt]
- Initial screening of RNase P Inhibition [12]: 0.91

- IC50 ([9]; hydrochloride salt): 154 µM
Compound: Cc1cccc(C(CC(=O)NCCC2CCNCC2)c2cn(Cc3ccccc3)c3ccccc23)c1.Cl (centres unmarked) [Compound 87, 3-(1-benzyl-1H-indol-3-yl)-N-(2-(piperidin-4-yl)ethyl)-3-(m-tolyl) propanamide hydrochloride salt]
- Initial screening of RNase P Inhibition ([12]; hydrochloride salt): 0.30

Compound: Cl.Clc1ccc(CNCCc2c[nH]c3ccccc23)c(Cl)n1 [Compound 8, N-((2,6-dichloropyridin-3-yl)methyl)-2-(1H-indol-3-yl)ethan-1-amine hydrochloride salt]
- Initial screening of RNase P Inhibition [12]: 0.96

Compound: Cc1cccc(C(CCNC2CCNCC2)c2cn(CC3CCCCC3)c3ccccc23)c1.Cl (centres unmarked) [Compound 122, N-(3-(1-(cyclohexylmethyl)-1H-indol-3-yl)-3-(m-tolyl)propyl)piperidin-4-amine hydrochloride salt]
- MIC (M. phlei ATCC 11758): 2 mg/L
- MIC (E. faecium ATCC 700221): 2 mg/L
- MIC (H. influenzae ATCC 49247): 4 mg/L
- MIC [1]: 16 mg/L
- MIC [2]: 4 mg/L
- MIC [3]: 4 mg/L
- MIC [4, 15]: 4 mg/L
- MIC [4, 13]: 4 mg/L
- MIC [5]: 2 mg/L
- MIC ([7]; ATCC29213, Table XIII): 8 mg/L
- MIC [7, 14]: 4 mg/L
- MIC (S. pneumoniae ATCC 49619): 8 mg/L
- MIC (K. pneumoniae ATCC 43816): 4 mg/L
- MIC [8]: 2 mg/L
- MIC (A. baumannii ATCC 17978): 8 mg/L
- IC50 [9]: 4 µM
- MIC [10]: 4 mg/L
- MIC [11]: 16 mg/L
- MIC (M. fortuitum ATCC 110): 2 mg/L

Compound: N[C@H]1CC[C@H](NCCc2cn(CC3CCCCC3)c3ccc(-c4cccc(OC(F)(F)F)c4)cc23)CC1 [Compound 274, hydrochloride salt]
- MIC (E. faecium ATCC 700221): 2 mg/L
- MIC (H. influenzae ATCC 49247): 4 mg/L
- MIC [1]: 16 mg/L
- MIC [2]: 2 mg/L
- MIC [3]: 4 mg/L
- MIC [4, 15]: 2 mg/L
- MIC [4, 13]: 4 mg/L
- MIC [5]: 2 mg/L
- MIC ([7]; ATCC29213, Table XIII): 4 mg/L
- MIC [7, 14]: 2 mg/L
- MIC (S. pneumoniae ATCC 49619): 8 mg/L
- MIC (K. pneumoniae ATCC 43816): 8 mg/L
- MIC [8]: 2 mg/L
- MIC (A. baumannii ATCC 17978): 8 mg/L
- IC50 [9]: 6.53 µM
- MIC [10]: 2 mg/L
- MIC [11]: 8 mg/L

Compound: Cl.Fc1ccc(CN(CCc2c[nH]c3ccccc23)Cc2ncc[nH]2)cc1 [Compound 10, N-((1H-imidazol-2-yl)methyl)-N-(4-fluorobenzyl)-2-(1H-indol-3-yl)ethan-1-amine hydrochloride salt]
- Initial screening of RNase P Inhibition [12]: 0.95

Compound: Brc1cccc(CNCCc2c[nH]c3ccccc23)n1.Cl [Compound 12, N-((6-bromopyridin-2-yl)methyl)-2-(1H-indol-3-yl)ethan-1-amine hydrochloride salt]
- Initial screening of RNase P Inhibition [12]: 0.84
